In patent US4194006A, “Therapeutic application of acetyl-d,l-carnitine and other acyl derivatives of d,l-carnitine” (priority 1977, dated 1980):
Where two headings read alike, the source gives them in different places.

What was measured:
in vivo = conditions: mouse, in vivo, iv
Text: The tolerance of acetyl-d,l-carnitine and of the other aforementioned acyl derivatives of the formula (I), as well as their salts were investigated by comparing the LD50 obtained by administering the compounds intravenously in mice with the LD50 obtained under the same experimental conditions by intravenous injection of d,l-carnitine.

heart homogenates = experiment: oxygen consumption (Q O2) in heart homogenates with and without added CoA; type: biochemical; conditions: compound 10^-3 M
isolated rabbit hearts [1] = experiment: coronary vasodilator effect: coronary flow, isolated heart (Langendorff)
In short: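 Langendorff-perfused isolated rabbit hearts in oxygenated Ringer at 38.2° C; anoxia imposed until contractile force fell by 80%, then reoxygenated with or without test compound. Coronary flow, isometric contraction and ECG recorded by polygraph.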

isolated rabbit hearts [2] = experiment: cardiokinetic effect on isolated heart (Langendorff): contractile force after anoxia, positive inotropic effect; conditions: 10 minutes from interruption of anoxic period
In short: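 Rabbit hearts were perfused Langendorff-style with oxygenated Ringer at 38.2 °C. Anoxia was applied until contractile force dropped by 80%, then the hearts were reoxygenated with or without compound. Contractile force was expressed as a percentage 10 min after the anoxic period ended.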

isolated rat atrium = experiment: antiarrhythmic effect, isolated rat atrium method of M. Libonati and G. Segre; conditions: Rattus norvegicus
female rats = experiment: antifatigue effect: rota-rod; type: in vivo, rat; conditions: Rattus norvegicus, ip, 0.25 h; for responders at 200 mg/kg: read-out: percentage of animals staying on the rota-rod more than 180 seconds, 200 mg/kg i.p.; for responders at 300 mg/kg: read-out: percentage of animals staying on the rota-rod more than 180 seconds, 300 mg/kg i.p.; for responders at 400 mg/kg: read-out: percentage of animals staying on the rota-rod more than 180 seconds, 400 mg/kg i.p.; for responders at 600 mg/kg: read-out: percentage of animals staying on the rota-rod more than 180 seconds, 600 mg/kg i.p.
In short: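 Female rats dosed intraperitoneally in saline, with controls given saline alone. Every 15 min after treatment animals were placed on a 6 cm rod rotating at 16 r.p.m. Value is the percentage of animals staying on the rod for more than 180 s, per session.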

[3] = read-out: Mean percent variation versus controls: excitability (-%)
[4] = read-out: Mean percent variation versus controls: frequency max (-%)
[5] = read-out: Mean percent variation versus controls: refractory period (+%)
[6] = read-out: Mean percent variation versus controls: rheobase (+%)
[7] = session 6 (every 15 minutes), * p < 0.05

For `C[N+](C)(C)CC(O)CC(=O)[O-]` (racemic) [d,l-carnitine, γ-trimethyl amino β-hydroxy butyric acid], the LD50 (in vivo) was roughly 610 mg/kg, the “Q O2” value (heart homogenates; added CoA 0) was 7.0 μlO2 /mg protein/hr and the “Q O2” value (heart homogenates; added CoA 2 × 10^-6 M) was 8.4 μlO2 /mg protein/hr. The “Q O2” value (heart homogenates; added CoA 4 × 10^-6 M) was 19.5 μlO2 /mg protein/hr, the “Q O2” value (heart homogenates; added CoA 8 × 10^-7 M) was 8.1 μlO2 /mg protein/hr and the “Coronary flow, Mean ± S.E.” value (isolated rabbit hearts [1]; 1·10^-5 g/lt) was 85.18 ± 3.26%. The “Coronary flow, Mean ± S.E.” value (isolated rabbit hearts [1]; 1·10^-6 g/lt) was 74.02 ± 6.17%, the “Coronary flow, Mean ± S.E.” value (isolated rabbit hearts [1]; 5·10^-6 g/lt) was 77.85 ± 3.01% and the “Contractile force, Mean ± S.E.” value (isolated rabbit hearts [2]; 1·10^-5 g/lt) was 50.9 ± 3.01%. For the same compound, the “Contractile force, Mean ± S.E.” value (isolated rabbit hearts [2]; 1·10^-6 g/lt) was 28.4 ± 3.15%, the “Contractile force, Mean ± S.E.” value (isolated rabbit hearts [2]; 5·10^-6 g/lt) was 32.2 ± 2.90% and the inhibition at 0.001 µg/mL (isolated rat atrium; [3]) was 12.7%. The inhibition at 0.01 µg/mL (isolated rat atrium; [3]) was 19.3%, the inhibition at 0.1 µg/mL (isolated rat atrium; [3]) was 27.1% and the inhibition at 0.001 µg/mL (isolated rat atrium; [4]) was 7.28%. For the same compound, the inhibition at 0.01 µg/mL (isolated rat atrium; [4]) was 23.6%, the inhibition at 0.1 µg/mL (isolated rat atrium; [4]) was 25.2% and the activation at 0.001 µg/mL (isolated rat atrium; [5]) was 18.3%. For the same compound, the activation at 0.01 µg/mL (isolated rat atrium; [5]) was 26%, the activation at 0.1 µg/mL (isolated rat atrium; [5]) was 31.1% and the activation at 0.001 µg/mL (isolated rat atrium; [6]) was 5.81%. The activation at 0.01 µg/mL (isolated rat atrium; [6]) was 9.07%, the activation at 0.1 µg/mL (isolated rat atrium; [6]) was 20.3% and the responders at 200 mg/kg (female rats; session 1 (every 15 minutes)) was 0%. The responders at 200 mg/kg (female rats; session 2 (every 15 minutes)) was 0%, the responders at 200 mg/kg (female rats; session 3 (every 15 minutes)) was 0% and the responders at 200 mg/kg (female rats; session 4 (every 15 minutes)) was 0%. The responders at 200 mg/kg (female rats; session 5 (every 15 minutes), * p < 0.05) was 0%, the responders at 200 mg/kg (female rats; [7]) was 0% and the responders at 300 mg/kg (female rats; session 1 (every 15 minutes)) was 0%. The responders at 300 mg/kg (female rats; session 2 (every 15 minutes)) was 0%, the responders at 300 mg/kg (female rats; session 3 (every 15 minutes)) was 0% and the responders at 300 mg/kg (female rats; session 4 (every 15 minutes)) was 0%. It also gave a responders at 300 mg/kg (female rats; session 5 (every 15 minutes)) of 10%, a responders at 300 mg/kg (female rats; session 6 (every 15 minutes)) of 10% and a responders at 400 mg/kg (female rats; session 1 (every 15 minutes)) of 0%. For the same compound, the responders at 400 mg/kg (female rats; session 2 (every 15 minutes)) was 0%, the responders at 400 mg/kg (female rats; session 3 (every 15 minutes)) was 8.33% and the responders at 400 mg/kg (female rats; session 4 (every 15 minutes)) was 25%. The responders at 400 mg/kg (female rats; session 5 (every 15 minutes)) was 25%, the responders at 400 mg/kg (female rats; [7]) was 25% and the responders at 600 mg/kg (female rats; session 1 (every 15 minutes)) was 0%. It also gave a responders at 600 mg/kg (female rats; session 2 (every 15 minutes)) of 16.7%, a responders at 600 mg/kg (female rats; session 3 (every 15 minutes)) of 16.7% and a responders at 600 mg/kg (female rats; session 4 (every 15 minutes)) of 16.7%. It also gave a responders at 600 mg/kg (female rats; session 5 (every 15 minutes)) of 16.7% and a responders at 600 mg/kg (female rats; [7]) of 25%.
